The NIST ThermoML archive (doi:10.1016/j.fluid.2018.08.012)

Assay: mn = molality of the nth substance listed, in mol/kg
Conditions: Fluid (supercritical or subcritical phases), Vibrating tube method, m1 = 0.2867

O=O [oxygen] + O=C=O
Conditions	mass density [kg/m3]
324.14 K, 2522.5 kPa	45.49
324.14 K, 2531.8 kPa	45.7
324.14 K, 4992.7 kPa	102.94
324.14 K, 4998.9 kPa	103.15
324.14 K, 7566.1 kPa	190.74
324.14 K, 7573.3 kPa	191.05
324.14 K, 10066 kPa	353.17
324.14 K, 10098 kPa	356.14
324.14 K, 12475 kPa	568.33
324.14 K, 12572 kPa	574.14
324.14 K, 15029 kPa	672.53
324.14 K, 15098 kPa	674.53
324.14 K, 17553 kPa	728.46
324.14 K, 17623 kPa	729.72
324.14 K, 20076 kPa	766.9
324.14 K, 20148 kPa	767.83
324.14 K, 22597 kPa	796.51
324.14 K, 22667 kPa	797.24
324.14 K, 25116 kPa	820.6
324.14 K, 25186 kPa	821.19
324.14 K, 27631 kPa	841.02
324.14 K, 27694 kPa	841.49
324.14 K, 30138 kPa	858.75
324.14 K, 30191 kPa	859.1
324.14 K, 32647 kPa	874.55
324.14 K, 32683 kPa	874.75
324.14 K, 35167 kPa	888.83
324.14 K, 35203 kPa	889.04
349.64 K, 2302.3 kPa	37.34
349.64 K, 2512.6 kPa	41.14
349.64 K, 4999.4 kPa	89.28
349.64 K, 5056.2 kPa	90.61
349.64 K, 7565.3 kPa	151.08
349.64 K, 7587.3 kPa	151.35
349.64 K, 10124 kPa	230.35
349.64 K, 10132 kPa	230.46
349.64 K, 12648 kPa	331.76
349.64 K, 12654 kPa	331.87
349.64 K, 15179 kPa	445.16
349.64 K, 15184 kPa	445.19
349.64 K, 17705 kPa	539.74
349.64 K, 17709 kPa	539.82
349.64 K, 20232 kPa	608.22
349.64 K, 20234 kPa	608.3
349.64 K, 22753 kPa	658.24
349.64 K, 22754 kPa	658.22
349.64 K, 25272 kPa	696.75
349.64 K, 25273 kPa	696.87
349.64 K, 27781 kPa	727.9
349.64 K, 27787 kPa	728.07
349.64 K, 30280 kPa	753.96
349.64 K, 30284 kPa	754.07
349.64 K, 32783 kPa	776.37
349.64 K, 32788 kPa	776.48
349.64 K, 35276 kPa	795.97
349.64 K, 35282 kPa	796.06
375.03 K, 2543.1 kPa	38.14
375.03 K, 2546.2 kPa	38.31
375.03 K, 5059.3 kPa	80.85
375.03 K, 5060.3 kPa	80.97
375.03 K, 7540.3 kPa	129.17
375.03 K, 7545.1 kPa	129.65
375.03 K, 10091 kPa	186.78
375.03 K, 10093 kPa	186.66
375.03 K, 12606 kPa	251.89
375.03 K, 12615 kPa	252.03
375.03 K, 15138 kPa	324.48
375.03 K, 15156 kPa	324.83
375.03 K, 17663 kPa	398.41
375.03 K, 17683 kPa	398.81
375.03 K, 20185 kPa	466.78
375.03 K, 20209 kPa	467.22
375.03 K, 22704 kPa	525.43
375.03 K, 22730 kPa	525.92
375.03 K, 25225 kPa	574.34
375.03 K, 25249 kPa	574.81
375.03 K, 27742 kPa	614.94
375.03 K, 27764 kPa	615.3
375.03 K, 30257 kPa	648.94
375.03 K, 30265 kPa	649.12
375.03 K, 32764 kPa	678.12
375.03 K, 32769 kPa	678.04
375.03 K, 35257 kPa	703.36
375.03 K, 35260 kPa	703.21
400.19 K, 2573.8 kPa	35.12
400.19 K, 2574.8 kPa	35.31
400.19 K, 5072.3 kPa	73.3
400.19 K, 5100.4 kPa	73.64
400.19 K, 7612.6 kPa	115.55
400.19 K, 7616.5 kPa	115.71
400.19 K, 10127 kPa	162.27
400.19 K, 10138 kPa	162.47
400.19 K, 12592 kPa	211.79
400.19 K, 12600 kPa	212.51
400.19 K, 15121 kPa	265.98
400.19 K, 15134 kPa	266.82
400.19 K, 17648 kPa	321.85
400.19 K, 17661 kPa	322.66
400.19 K, 20173 kPa	377.08
400.19 K, 20186 kPa	377.95
400.19 K, 22693 kPa	429.17
400.19 K, 22707 kPa	430.08
400.19 K, 25212 kPa	476.61
400.19 K, 25228 kPa	477.53
400.19 K, 27728 kPa	518.93
400.19 K, 27743 kPa	519.82
400.19 K, 30241 kPa	556.24
400.19 K, 30253 kPa	557.1
400.19 K, 32739 kPa	588.97
400.19 K, 32757 kPa	589.89
400.19 K, 35235 kPa	617.97
400.19 K, 35247 kPa	618.78
